PMC5640650, “NatD promotes lung cancer progression by preventing histone H4 serine phosphorylation to activate Slug expression” (Nature Communications, 2017)

System: A549 cells
Test: Tail vein xenograft in SCID mice, A549 cells
Type: in vivo, human
Text: Fig. 3 NatD promotes lung cancer cell invasion in a xenograft mouse model. a (left) Representative bioluminescent (BLI) images acquired at the indicated time points after intravenous injection of SCID mice with Scr or NatD-KD A549 cells. NatD-KD2 cells were used because the KD2 shRNA produced a better knockdown effect. Pseudocolor heat-maps indicate intensity of bioluminescence from low (blue) to high (red) (D, day). (right) Normalized BLI signals of lung tumors of corresponding mice (n = 5 for each group) recorded at the indicated time points. Results are shown as mean ± s.d. from five mice. […] (right) Quantification of total lung bioluminescence from SCID mice as in (b) (n = 5 for each group). […]
All animal care and handling procedures were performed in accordance with the National Institutes of Health Guide for the Care and Use of Laboratory Animals, and were approved by the Institutional Review Board of Nanjing University (Nanjing, China). […] Lung nodules and progression were monitored and quantified using the bioluminescence system (Caliper IVIS Lumina XR) or by counting under a dissecting microscope. […] Mice were killed at day 28 or day 30 to collect lungs, and lung nodules in serial sections were quantified microscopically. […] Lung nodules and progression were monitored and quantified using the bioluminescence system (Caliper IVIS Lumina XR). […]

With “NatD-KD2: Human NatD shRNA KD2: 5′-GGTTGAATGTCTCCATTGA-3′, lentiviral (shRNA lentiviral)” the “lung cancer growth signals (photon radiance)” value (BLI days 1-28, n = 5, vs Scr) was “significantly reduced” and the “number of tumor nodules” value (day 28, n = 5, relative to Scr) was “decreased threefold”.
